In US8044098B2, “Use of hydroxybenzoic acids and their esters and analogues for preventing or treating virus infection” (Shenghua Guangzhou Pharmaceutical Science & Technology Co., …, priority 2005, dated 2011):

Legend:
HPV 16/18 = assay: Drug screening by quantitative fluorescent PCR analysis of HPV 16/18 in condyloma acuminata homogenate; set-up: species or system human papillomavirus (HPV); details: for HPV 16/18 Virus (copies/ml): 50 μl 10% micro emulsion + 50 μl HPV sample homogenate, 37° C., 24 hours, saline control 1.40 × 10^5; for HPV 16/18 detected by FQ-PCR (in words): 24 hours after adding the test compound
HPV 6/11 = assay: Drug screening by quantitative fluorescent PCR analysis of HPV 6/11 in condyloma acuminata homogenate; set-up: species or system human papillomavirus (HPV); details: for HPV 6/11 Virus (copies/ml): 50 μl 10% micro emulsion + 50 μl HPV sample homogenate, 37° C., 24 hours, saline control 1.45 × 10^6; for HPV 6/11 detected by FQ-PCR (in words): 24 hours after adding the test compound
[1] = tested on: secretion of HBeAg by 2.2.15 cells; assay: Inhibition of secretion of HBeAg by Hepatitis B 2.2.15 cell line; format: cell-based, HBV; details: 1 μmol/ml; for HBeAg Inhibition Rate: 2.2.15 cells, supernatant collected three days later
From the text: (§1) Hepatitis B 2.2.15 cell line was transfected by HBV DNA (purchased from Institute of Biochemistry and Cell Biology of Shanghai Institute for Biological Sciences or the National Center for Drug Screening) and used as the cell model for screening anti-HBV drug compounds (See Chinese Journal Of Integrated Traditional and Western Medicine on Liver Diseases, 2004, 14(3): 158). The cell culture medium DMEM (GIBCO Company), bovine serum (Hangzhou Siji Qing Biochemical Manufacturer), G418 (GIBCO Company), 3-(4,5-dimethylthiazol-2-yl)-2,5-diphenyltetrazoliumbromide (Sigma), HBsAg and HBeAg diagnostic kit (Shanghai Kehua Bio-engineering Co., Ltd).
(§2) The test compounds listed in Table 3 below were dissolved in a mixture containing 20 ml 1,2-propylene glycol and 15 ml Tween-80 and diluted with sterile saline water to 2 μmol/ml of the test compound. Then it was mixed with the cell culture medium at equal volume to obtain a solution containing 1 μmol/ml of the tested compound. Cells at the concentration of 1×10^5 cells per milliliter were inoculated to a 24-well plate at 1 ml/well. Supernatant from the cell culture mixture was collected three days later for testing.

[2] = tested on: secretion of HBsAg by 2.2.15 cells; assay: Inhibition of secretion of HBsAg by Hepatitis B 2.2.15 cell line; format: cell-based, HBV; details: 1 μmol/ml; for HBsAg Inhibition rate: 2.2.15 cells, supernatant collected three days later
From the text: as §1, §2

condyloma acuminata = assay: Clinical use in treating condyloma acuminata; format: in vivo, human; details: for treatment effect compared to recombinant human interferon α-2β gel: condyloma acuminata patients, 10% micro emulsion
From the text: Soft hyperplasia with nipple or cauliflower shaped or other shaped warts were found around the skin of the cunnus or anus. The result from 5% acetate acid white test was positive.
Patients selected for the clinical observation must meet the above standards. Plus the diameter of their skin lesions should equal to or be less than 1 cm. […] Patients who had vaginal yeast, trichomonas, bacteria infection or other complications, chronic diseases, serious liver or kidney diseases or women in pregnancy or lactation were not selected. Treatments to women would not be conducted in their menstrual periods.
50 qualified patients were selected and randomly divided into five groups to be tested with p-hydroxybenzoic acid, gallic acid, ethyl p-hydroxybenzoate, propyl gallate and recombinant human interferon α-2β gel, respectively. The samples of p-hydroxybenzoic acid, gallic acid, ethyl p-hydroxybenzoate and propyl gallate were prepared as described in Example 1. The patients were treated with the test sample to the affected areas three times a day, in the morning, at noon and night. The samples were applied to cover the warts and the patients were required to leave the treated areas exposed and not to move for 20 minutes.
Observation time: 8 days. Patients not cured after 8 days would continue to use the test samples for another 12 weeks, and their prognosis was followed during the 12-week period.
Observed items: the location, shape, size and number of warts were carefully observed and recorded before the treatment.
“Recovered”: all skin lesions had disappeared;
“Obvious Effect”: more than 70% of the skin lesions had disappeared;
“Improved”: more than 30% of the skin lesions had disappeared;
“Not Effective”: less than 30% of the skin lesions had disappeared or the original skin lesions didn't change or even enlarged.

[3] = number of patients, more than 70% of the skin lesions disappeared

SMILES | HPV 16/18 Virus (copies/ml) (HPV 16/18) | HPV 16/18 detected by FQ-PCR (in words) (HPV 16/18) | HPV 6/11 Virus (copies/ml) (HPV 6/11) | also measured
O=C(O)c1ccc(O)c(O)c1O [2,3,4-trihydroxybenzoic acid] | 0 copies/ml | no HPV 6/11 or HPV 16/18 was detected | 0 copies/ml | HPV 6/11 detected by FQ-PCR (in words) (HPV 6/11): no HPV 6/11 or HPV 16/18 was detected
O=C(O)c1cccc(O)c1O [2,3-dihydroxybenzoic acid] | 3.20 × 10^3 copies/ml | – | 2.30 × 10^4 copies/ml | –
O=C(O)c1ccc(O)cc1O [2,4-dihydroxybenzoic acid] | 4.60 × 10^3 copies/ml | – | 1.60 × 10^4 copies/ml | –
O=C(O)c1ccc(O)c(O)c1 [3,4-dihydroxybenzoic acid] | 8.50 × 10^4 copies/ml | – | 1.90 × 10^4 copies/ml | effect on the secretion of HBeAg by the 2.2.15 cells (in words) [1]: had inhibition effect; HBeAg Inhibition Rate [1]: 8.92%; effect on the secretion of HBsAg by the 2.2.15 cells (in words) [2]: had inhibition effect; HBsAg Inhibition rate [2]: 9.81%
O=C(O)c1cc(Cl)c(O)c(Cl)c1 [3,5-dicloro-4-hydroxybenzoic acid] | 2.60 × 10^4 copies/ml | – | 2.30 × 10^3 copies/ml | –
O=C(O)c1ccc(O)c(Br)c1 [3-bromo-4-hydroxybenzoic acid] | 5.00 × 10^4 copies/ml | – | 3.40 × 10^3 copies/ml | –
O=C(O)c1ccccc1 [Benzoic acid, benzoic acid] | 2.90 × 10^4 copies/ml | – | 3.60 × 10^5 copies/ml | –
CCOC(=O)c1ccc(O)c(O)c1 [Ethyl 3,4-dihydroxybenzoate] | – | – | – | effect on the secretion of HBeAg by the 2.2.15 cells (in words) [1]: had inhibition effect; inhibition of HBeAg secretion compared with gallic acid and 3,4-dihydroxybenzoic acid [1]: more effective; HBeAg Inhibition Rate [1]: 6.04%; effect on the secretion of HBsAg by the 2.2.15 cells (in words) [2]: had inhibition effect; inhibition of HBsAg secretion compared with gallic acid and 3,4-dihydroxybenzoic acid [2]: more effective; HBsAg Inhibition rate [2]: 14.20%
CCOC(=O)c1cc(O)c(O)c(O)c1 [Ethyl gallate] | 0 copies/ml | no HPV 6/11 or HPV 16/18 was detected | 0 copies/ml | HPV 6/11 detected by FQ-PCR (in words) (HPV 6/11): no HPV 6/11 or HPV 16/18 was detected
CCOC(=O)c1ccc(O)cc1 [Ethyl p-hydroxybenzoate] | 0 copies/ml | not detected | 8.50 × 10^4 copies/ml | treatment effect compared to recombinant human interferon α-2β gel (condyloma acuminata): more apparent treatment effect; Recovered, 1-4 days (condyloma acuminata; number of patients (50 patients in five groups), 10% micro emulsion on affected areas three times a day, all skin lesions disappeared): 6; Recovered, 5-8 days (condyloma acuminata; number of patients, 10% micro emulsion three times a day, all skin lesions disappeared): 2; Obvious Effect, 1-4 days (condyloma acuminata; [3]): 2
COC(=O)c1ccc(O)c(O)c1O [Methyl 2,3,4-trihydroxybenzoate] | 0 copies/ml | no HPV 6/11 or HPV 16/18 was detected | 0 copies/ml | HPV 6/11 detected by FQ-PCR (in words) (HPV 6/11): no HPV 6/11 or HPV 16/18 was detected
COC(=O)c1cccc(O)c1O [Methyl 2,3-dihydroxybenzoate] | 4.20 × 10^2 copies/ml | – | 3.00 × 10^4 copies/ml | –
COC(=O)c1ccc(O)cc1O [Methyl 2,4-dihydroxybenzoate] | 2.50 × 10^2 copies/ml | – | 5.20 × 10^4 copies/ml | –
COC(=O)c1ccc(O)c(O)c1 [Methyl 3,4-dihydroxybenzoate] | 6.00 × 10^2 copies/ml | – | 8.50 × 10^4 copies/ml | –
COC(=O)c1cc(O)c(O)c(O)c1 [Methyl gallate] | 0 copies/ml | no HPV 6/11 or HPV 16/18 was detected | 0 copies/ml | HPV 6/11 detected by FQ-PCR (in words) (HPV 6/11): no HPV 6/11 or HPV 16/18 was detected
CCCCCCCCOC(=O)c1cccc(O)c1O [Octyl 2,3-dihydroxybenzoate] | 1.50 × 10^2 copies/ml | – | 2.20 × 10^2 copies/ml | –
CCCCCCCCOC(=O)c1cc(O)c(O)c(O)c1 [Octyl gallate] | 0 copies/ml | no HPV 6/11 or HPV 16/18 was detected | 0 copies/ml | HPV 6/11 detected by FQ-PCR (in words) (HPV 6/11): no HPV 6/11 or HPV 16/18 was detected
CCCOC(=O)c1ccc(O)c(O)c1O [Propyl 2,3,4-trihydroxybenzoate] | 0 copies/ml | no HPV 6/11 or HPV 16/18 was detected | 0 copies/ml | HPV 6/11 detected by FQ-PCR (in words) (HPV 6/11): no HPV 6/11 or HPV 16/18 was detected
O=C(O)c1ccccc1O [Salicylic acid, salicylic acid, reference compound] | 2.60 × 10^4 copies/ml | – | 5.50 × 10^5 copies/ml | –
CCCCCCCCCCCCOC(=O)c1cc(O)c(O)c(O)c1 [dodecyl gallate, Dodecyl gallate] | 4.90 × 10^4 copies/ml | – | 6.70 × 10^4 copies/ml | –
O=C(O)c1ccc(O)cc1 [p-hydroxybenzoic acid] | 1.30 × 10^3 copies/ml | – | 7.00 × 10^5 copies/ml | treatment effect compared to recombinant human interferon α-2β gel (condyloma acuminata): more apparent treatment effect; Not Effective (condyloma acuminata; number of patients, less than 30% of the skin lesions disappeared, observation 8 days): 3; Improved (condyloma acuminata; number of patients, more than 30% of the skin lesions disappeared, observation 8 days): 2; Obvious Effect, 5-8 days (condyloma acuminata; [3]): 5
